Assay [1] addresses T1, MinElp3 (Methanocaldococcus infernus, UniProt D5VRB9, K150A).
T1 construct: gene Metin_0452
T1 sequence (D5VRB9 1-534 K150A): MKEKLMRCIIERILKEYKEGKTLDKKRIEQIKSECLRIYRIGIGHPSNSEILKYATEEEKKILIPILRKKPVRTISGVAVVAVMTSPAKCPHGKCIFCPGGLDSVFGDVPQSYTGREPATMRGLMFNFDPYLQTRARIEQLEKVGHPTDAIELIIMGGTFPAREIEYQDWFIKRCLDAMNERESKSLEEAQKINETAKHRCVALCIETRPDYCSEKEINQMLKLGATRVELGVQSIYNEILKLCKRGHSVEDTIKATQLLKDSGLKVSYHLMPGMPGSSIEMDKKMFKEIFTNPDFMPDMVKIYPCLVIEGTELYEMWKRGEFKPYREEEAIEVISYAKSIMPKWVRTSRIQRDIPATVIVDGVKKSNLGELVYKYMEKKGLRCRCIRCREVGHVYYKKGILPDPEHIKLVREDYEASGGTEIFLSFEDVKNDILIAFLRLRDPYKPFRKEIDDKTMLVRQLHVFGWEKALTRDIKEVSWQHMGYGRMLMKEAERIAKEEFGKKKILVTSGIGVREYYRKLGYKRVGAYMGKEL
As to the kind of experiment: acetyl-CoA binding measurement (Supplementary Fig. 6b).

The target in assay [2] is T2, MinElp3 (Methanocaldococcus infernus, UniProt D5VRB9, DEL466-486/INS466GSGSG).
T2 construct: gene Metin_0452
As to the kind of experiment: ITC (also tRNA-induced acetyl-CoA hydrolysis). The format is binding.

Assay [3] deals with T3, DmcElp3 (Dehalococcoides mccartyi, UniProt A0A1C7D1B7).
T3 construct: gene cbdbA595
As to the kind of experiment: acetyl-CoA hydrolysis by purified protein, induced by yeast bulk tRNA (weak). The format is biochemical.

For assay [4], the target named is T4, MinElp3 (Methanocaldococcus infernus, UniProt D5VRB9).
T4 construct: gene Metin_0452; full length
T4 sequence (D5VRB9 1-534): T1 sequence (D5VRB9 1-534 K150A) with A150K
As to the kind of experiment: ITC (also tRNA-induced acetyl-CoA hydrolysis). The class given is binding.

Structures are written as SMILES. Changes are numbered by the printed parent chain.

A word on the Kd: it is the free concentration of one partner at which half of the binding sites on the other are occupied at equilibrium, for simple one-to-one binding.

T3 sequence (A0A1C7D1B7 whole entry): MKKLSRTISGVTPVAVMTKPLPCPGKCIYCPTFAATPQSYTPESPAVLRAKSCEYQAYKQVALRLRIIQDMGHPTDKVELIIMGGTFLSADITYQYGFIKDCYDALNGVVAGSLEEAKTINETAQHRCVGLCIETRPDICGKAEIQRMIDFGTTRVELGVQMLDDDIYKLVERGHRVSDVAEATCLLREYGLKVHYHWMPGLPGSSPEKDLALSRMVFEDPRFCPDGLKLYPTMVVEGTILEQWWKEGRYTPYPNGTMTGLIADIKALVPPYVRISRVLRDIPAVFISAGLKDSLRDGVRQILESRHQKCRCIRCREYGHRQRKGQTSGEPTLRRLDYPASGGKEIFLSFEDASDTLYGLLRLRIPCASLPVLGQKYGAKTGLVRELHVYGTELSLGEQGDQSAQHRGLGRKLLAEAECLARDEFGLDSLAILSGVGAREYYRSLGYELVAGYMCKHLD
T2 sequence (D5VRB9 other isoform, or with tags, fused parts or gaps DEL466-486/INS466GSGSG): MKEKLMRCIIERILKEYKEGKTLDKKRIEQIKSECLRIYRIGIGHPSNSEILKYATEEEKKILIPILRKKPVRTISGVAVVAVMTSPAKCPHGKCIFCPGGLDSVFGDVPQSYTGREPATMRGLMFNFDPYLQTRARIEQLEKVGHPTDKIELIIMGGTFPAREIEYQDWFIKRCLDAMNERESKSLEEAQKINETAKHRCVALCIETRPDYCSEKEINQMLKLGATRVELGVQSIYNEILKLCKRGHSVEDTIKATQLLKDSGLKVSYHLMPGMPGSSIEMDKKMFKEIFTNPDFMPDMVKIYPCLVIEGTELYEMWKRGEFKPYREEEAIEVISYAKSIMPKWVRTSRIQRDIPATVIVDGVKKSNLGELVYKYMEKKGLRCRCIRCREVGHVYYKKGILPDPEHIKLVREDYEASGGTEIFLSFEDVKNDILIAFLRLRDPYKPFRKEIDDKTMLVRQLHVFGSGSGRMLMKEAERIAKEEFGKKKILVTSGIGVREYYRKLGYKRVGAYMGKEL

With `CC(=O)SCCNC(=O)CCNC(=O)[C@H](O)C(C)(C)COP(=O)(O)OP(=O)(O)OC[C@H]1O[C@@H](n2cnc3c(N)ncnc32)[C@H](O)[C@@H]1OP(=O)(O)O` [acetyl-CoA], the “acetyl-CoA binding measurement (Supplementary Fig. 6b)” value in assay [1] was “As K150A shows normal tRNA and acetyl-CoA binding, we believe that it might be directly involved the hydrolysis reaction”. Further, the values for the Kd in assay [2] and in assay [4] were 108 ± 55.8 µM and 135 ± 55.3 µM, respectively. Besides, in assay [3], the “acetyl-CoA hydrolysis by purified protein, induced by yeast bulk tRNA (weak)” value is given as “DmcElp3, on the other hand, showed ~5-times reduced-induced hydrolysis activity”.
